Measured values as given in patent publication US9216106B2, “Device and method for the delivery of drugs for the treatment of posterior segment disease” (DIRECTCONTACT LLC, priority 2003, dated 2015).

Tests used:
[1] = Release of drug from hydrogel lens in contact with the cornea; type: in vivo; conditions: after 2 hours of contact with the cornea; lens with about 700 ng beclomethasone or 450 ng prednisolone
Experimental: In some embodiments, such as with classes of corticosteroids, a single hydrogel contact lens may be loaded with about […] of active compound. For instance, experiments have shown that an effective concentration of beclomethasone can be delivered to the posterior segment by treating with a lens that includes about 700 ng of the compound. […] In each case, about 95% of the drug exited the lens after 2 hours of contact with the cornea. It is believed that the consistent pore size of the hydrogels provides for a consistent delivery rate of a variety of compounds.

[2] = rabbit, in vivo
Experimental: A series of experiments were designed to determine the efficacy of delivery to the posterior segment from a hydrogel positioned on the cornea.
In the first experiment, rabbits were treated by placing hydrogel lenses on the corneas of the animals for a period of 3 hours. Each lens was infused with about 450 ng of prednisolone incorporated therein. The lenses were placed onto the eyes of anesthetized animals (closed eye period) for the three hour period after which time the lenses were removed. The procedure was repeated about every other day or every three days until 5 applications had been completed.
After completion of the five applications, each eye of the animal was analyzed for prednisolone concentration using LC/MS/MS. The portion of the posterior segment that was analyzed included macula, retina, surrounding muscle, nerve and circulatory, including connective tissues and cells. Sample size typically was about 800 mg. […] The limit of quantification for prednisolone was 0.5 ng/mL and for prednisone was 0.05 ng/mL.

Row | drug exited the lens [1] | average concentration in the posterior segment relative to the amount provided in the hydrogel lenses [2] | SMILES
1 | about 95% | – | C[C@H]1C[C@H]2[C@@H]3CCC4=CC(=O)C=C[C@]4(C)[C@@]3(Cl)[C@@H](O)C[C@]2(C)[C@@]1(O)C(=O)CO [Beclomethasone, beclomethasone]
2 | about 95% | greater than 10% | C[C@]12C=CC(=O)C=C1CC[C@@H]1[C@@H]2[C@@H](O)C[C@@]2(C)[C@H]1CC[C@]2(O)C(=O)CO [Prednisolone, prednisolone]
